These results are taken from PubChem BioAssay (NCI).

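48-hour exposure; five concentrations; linearly interpolated endpoints. GI50: concentration for 50% inhibition of growth. Definition used: TGI = concentration required for complete inhibition of growth.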 Bounds are passed on as bounds.

Among the test systems are COLO 205 colon; HT29 colon; K-562 leukemia; KM12 colon; RXF 393 renal; SF-268 CNS; SK-MEL-28 melanoma; OVCAR-5 ovarian; NCI/ADR-RES ovarian.
What all share (experiment): NCI-60 cell line screen, 48 h

On to `CCOC(=O)c1nc(-c2ccccc2)oc1OCC`, for which the TGI in the assay on COLO 205 colon, in the assay with HT29 colon, in the assay with K-562 leukemia, with KM12 colon, in the assay on RXF 393 renal and in the assay with SF-268 CNS was greater than 100 µM each time. In the assay on SK-MEL-28 melanoma, this compound yielded a TGI greater than 100 µM.
Turning to `N.N.NCCCCCCN.O=C([O-])CC(=O)[O-].O=C([O-])CC(=O)[O-].[Pt+4].[Pt+4]`, the GI50 in the assay on COLO 205 colon is 27.7 µM; with HT29 colon it was 62.5 µM; with K-562 leukemia, greater than 86.3 µM; with KM12 colon, greater than 100 µM; with OVCAR-5 ovarian it was greater than 100 µM; in the assay on RXF 393 renal, greater than 41.4 µM. In addition, the values for the GI50 in the assay on SF-268 CNS and in the assay with SK-MEL-28 melanoma were 28.9 µM and greater than 100 µM, respectively. For the same compound, the TGI in the assay on COLO 205 colon, in the assay on HT29 colon, with K-562 leukemia, in the assay with KM12 colon, in the assay on OVCAR-5 ovarian and in the assay on RXF 393 renal was greater than 100 µM each time. Also, the TGI in the assay with SF-268 CNS and with SK-MEL-28 melanoma was greater than 100 µM each time.
As to `COc1cc(/C=C/C(=O)c2sc(NNC(C)=O)nc2C)ccc1O`, the TGI with COLO 205 colon, in the assay on HT29 colon, in the assay on K-562 leukemia, with KM12 colon, with OVCAR-5 ovarian and with RXF 393 renal was greater than 100 µM in each case. Also, the TGI in the assay with SF-268 CNS and with SK-MEL-28 melanoma was greater than 100 µM throughout.
On to `C[C@@H](NC1CCC[C@H]1O)c1ccccc1` (some centres undefined), for which the TGI in the assay with COLO 205 colon, with HT29 colon, in the assay on K-562 leukemia, in the assay with KM12 colon, with OVCAR-5 ovarian and in the assay with RXF 393 renal was greater than 100 µM each time. In the assay with SK-MEL-28 melanoma, this compound gave a TGI greater than 100 µM.
Take `CS/C(=N\c1nccs1)NC(=O)c1cccc(Cl)c1`: the TGI with COLO 205 colon, in the assay with HT29 colon, with K-562 leukemia, in the assay on KM12 colon, in the assay with OVCAR-5 ovarian and in the assay on RXF 393 renal was greater than 100 µM throughout. Further, the TGI with SF-268 CNS and in the assay on SK-MEL-28 melanoma was greater than 100 µM throughout.
Take `COC(=O)C1=C(O)c2cc3c(cc2[C@H](c2cc(OC)c(OC)c(OC)c2)C1C(=O)OC)OCO3` (some centres undefined): the TGI in the assay on COLO 205 colon was 45.7 µM; in the assay with HT29 colon, greater than 100 µM; in the assay on K-562 leukemia, greater than 100 µM; with KM12 colon it was greater than 100 µM; in the assay on OVCAR-5 ovarian, greater than 100 µM; in the assay on RXF 393 renal it was 73.4 µM. Further, the TGI in the assay on SF-268 CNS and with SK-MEL-28 melanoma was greater than 100 µM throughout.
As to `CCN1C(=O)N(CC)C2C1NN=c1s/c(=C\c3cc4ccccc4[nH]3)c(=O)n12` (centres undefined), the GI50 in the assay on COLO 205 colon was 0.0201 µM; in the assay on HT29 colon, less than 0.01 µM; with K-562 leukemia it was less than 0.01 µM; in the assay with KM12 colon it was less than 0.012 µM; with NCI/ADR-RES ovarian, 0.0213 µM; in the assay on OVCAR-5 ovarian, less than 0.0128 µM. For the same compound, the GI50 in the assay with RXF 393 renal is less than 0.0187 µM; with SF-268 CNS, less than 0.0229 µM; with SK-MEL-28 melanoma, 2.77 µM. Also, the TGI was 0.0448 µM in the assay on COLO 205 colon; greater than 100 µM in the assay with HT29 colon; greater than 100 µM with K-562 leukemia; greater than 58.6 µM in the assay with KM12 colon; 2.3 µM in the assay with NCI/ADR-RES ovarian; greater than 100 µM in the assay on OVCAR-5 ovarian. Moreover, the results for the TGI in the assay on RXF 393 renal, in the assay with SF-268 CNS and in the assay with SK-MEL-28 melanoma were 11.6 µM, 20.4 µM and greater than 83 µM, respectively.
For the compound `O=C1CCC2(c3ccccc3)Nc3ncccc3N12` (centres undefined), the TGI with COLO 205 colon, in the assay on HT29 colon, in the assay on K-562 leukemia, with KM12 colon, with OVCAR-5 ovarian and in the assay on RXF 393 renal was greater than 100 µM each time. Besides, the TGI in the assay with SF-268 CNS and in the assay on SK-MEL-28 melanoma was greater than 100 µM each time.
Consider `COC(=O)c1cc(-c2cccn2C)c2c(c1C(=O)OC)c1ccccc1n2C`, for which the TGI with COLO 205 colon, in the assay with HT29 colon, with K-562 leukemia, in the assay on KM12 colon, in the assay on RXF 393 renal and in the assay with SK-MEL-28 melanoma was greater than 100 µM in each case.
With `CC1(C)CC[C@]2(C(=O)N3CCOCC3)CC[C@]3(C)C(=CC[C@@H]4[C@@]5(C)C/C(=C/c6ccncc6)C(=O)C(C)(C)[C@@H]5CC[C@]43C)[C@@H]2C1`, the GI50 was 0.912 µM in the assay on HT29 colon; 0.637 µM with K-562 leukemia; 2.7 µM in the assay on KM12 colon; 2.5 µM in the assay on NCI/ADR-RES ovarian; 2.27 µM with OVCAR-5 ovarian; 1.22 µM with RXF 393 renal. Moreover, the GI50 is 6.33 µM in the assay with SF-268 CNS and 1.84 µM with SK-MEL-28 melanoma. The TGI was 54.5 µM in the assay with HT29 colon; greater than 100 µM in the assay with K-562 leukemia; greater than 100 µM in the assay with KM12 colon; 46.4 µM with NCI/ADR-RES ovarian; 9.45 µM in the assay on OVCAR-5 ovarian; 3.03 µM with RXF 393 renal. For the same compound, the TGI is greater than 100 µM in the assay on SF-268 CNS and 5.41 µM in the assay with SK-MEL-28 melanoma.
For the compound `CC#CC1C(OC(=O)c2ccccc2)CCCC1(CI)N=[N+]=[N-]` (centres undefined), the TGI in the assay on COLO 205 colon, in the assay with HT29 colon, in the assay on K-562 leukemia, in the assay on KM12 colon, in the assay with OVCAR-5 ovarian and in the assay on RXF 393 renal was greater than 100 µM in each case. Also, in the assay on SF-268 CNS, the TGI is greater than 100 µM.
Regarding `O=C1NC2C=CN(Cc3ccccc3)C=C2C(=O)N2CCCC12` (centres undefined), the TGI in the assay on COLO 205 colon, with HT29 colon, in the assay with KM12 colon, in the assay with OVCAR-5 ovarian, with RXF 393 renal and in the assay with SF-268 CNS was greater than 100 µM in each case. This compound displayed a TGI in the assay on SK-MEL-28 melanoma greater than 100 µM.
With `N#Cc1cc([N+](=O)[O-])ccc1NC(=O)/C(=N/N)C(C(=O)c1ccc(Cl)c(Cl)c1)C1OC(=O)c2ccccc21` (centres undefined), the TGI in the assay with COLO 205 colon, with HT29 colon, with K-562 leukemia, in the assay on KM12 colon, in the assay on OVCAR-5 ovarian and in the assay on RXF 393 renal was greater than 100 µM throughout. The TGI in the assay on SF-268 CNS and in the assay with SK-MEL-28 melanoma was greater than 100 µM throughout.
